# Measured values published in PubChem BioAssay (NCI).
# Where “and” joins values, the source holds several entries; their conditions need not be identical. Equal values may be shown once.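 Cells were grown in 96-well plates and exposed to each compound for 48 hours at five concentrations; endpoints were interpolated linearly between bracketing concentrations, or set to the highest concentration if not reached. GI50 marks 50% less growth. TGI marks complete inhibition of growth.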
# What was measured:
# Experiment in all cases: NCI-60 cell line screen, 48 h
# SF-268 CNS = test system: SF-268 CNS
# SK-OV-3 ovarian = test system: SK-OV-3 ovarian
# U251 CNS = test system: U251 CNS
# UACC-62 melanoma = test system: UACC-62 melanoma
# SR leukemia = test system: SR leukemia
# CCRF-CEM leukemia = test system: CCRF-CEM leukemia
# T-47D breast = test system: T-47D breast
# A498 renal = test system: A498 renal
# SN12C renal = test system: SN12C renal
# SNB-19 CNS = test system: SNB-19 CNS
SMILES,GI50 (SF-268 CNS) [µM],TGI (SF-268 CNS) [µM],GI50 (SK-OV-3 ovarian) [µM],TGI (SK-OV-3 ovarian) [µM],GI50 (U251 CNS) [µM],TGI (U251 CNS) [µM],GI50 (UACC-62 melanoma) [µM],TGI (UACC-62 melanoma) [µM],GI50 (SR leukemia) [µM],TGI (SR leukemia),GI50 (CCRF-CEM leukemia) [µM],TGI (CCRF-CEM leukemia) [µM],GI50 (T-47D breast) [µM],TGI (T-47D breast) [µM],GI50 (A498 renal) [µM],TGI (A498 renal) [µM],GI50 (SN12C renal) [µM],TGI (SN12C renal),GI50 (SNB-19 CNS) [µM],TGI (SNB-19 CNS) [µM]
CC1(C)N=C(N)N=C(N)N1c1cccc(CCCCc2ccc(Cl)c(S(=O)(=O)F)c2)c1,1.47,16.2,11.7,27.8,0.655,21.3,0.732,17.2,2.44,16.8 µM,0.764,17.6,13.8,30.9,16.4,52.9,0.967,16.4 µM,3.3,18.4
Cc1cc2[nH]c(=O)c3c4ncccc4cn3c2cc1C,3.44,> 100,6.62,73.7,2.67,9.18,2.06,4.33,2.17,6.16 µM,2.95,> 100,2.37,> 100,9.38,84.5,3.45,> 100 µM,5.48,> 100
OCC#Cc1ccccc1C#Cc1ccc(C#Cc2ccccc2C#CCO)cc1,35.1,> 100,55.4,> 100,34,> 100,58.6,> 100,22,49.5 µM,38.1,> 100,> 100,> 100,28.9,95.7,31.6,> 100 µM,50,> 100
C=C(C)[C@@H]1C/C=C(/COC(C)=O)CC[C@H]2O[C@@]2(C)CC/C=C(\C)CC1,> 100,> 100,> 100,> 100,> 100,> 100,> 100,> 100,34.3,91.5 µM,26.9,54.8,> 100,> 100,> 100,> 100,> 100,> 100 µM,> 100,> 100
C/C(=N\N)C(CN1CCOCC1)C(c1ccccc1)c1c(O)c2ccccc2oc1=O (configuration not stated),,> 100,,> 100,,> 100,,> 100,,> 100 µM,,> 100,,> 100,,> 100,,> 100 µM,,> 100
CC(C)(C)c1cc[n+](C[n+]2ccc(C(C)(C)C)cc2)cc1,,> 100,,> 100,,> 100,,> 100,,> 100 µM,,> 100,,> 100,,> 100,,> 100 µM,,> 100
CC1(C)CC[C@]2(C(=O)NCCNCCN)CC[C@]3(C)C(=CC[C@@H]4[C@@]5(C)CCC(=O)C(C)(C)[C@@H]5CC[C@]43C)[C@@H]2C1,1.89,4.06,2.56,6.09,1.79,3.46,1.69,3.14,1.7,4.76 µM,2.51,8.64,1.88,3.95,8.01,23.6,1.68,3.13 µM,1.73,3.23
C#Cc1cccc(Nc2nc(C)nc3cc(NC(=O)CCl)ccc23)c1,2.62,6.82,3.81,7.31,0.641,1.7,1.01,3.81,0.561,2.24 µM,0.638,2.22,3.17,7.69,3.65,7.64,0.896,3.58 µM,1.29,4.29
COc1ccc2cc(C(=O)N3CCC([C@@H](C)C(=O)NCc4ccc5c(c4)OCO5)CC3)[nH]c2c1,77.3,> 100,> 100,> 100,> 100,> 100,28.1,> 100,> 100,> 100 µM,> 100,> 100,> 100,> 100,> 100,> 100,> 100,> 100 µM,56.7,> 100
COc1ccc2c(c1)c1ccc3c(c1n2C)C(=O)C=CC3=O,,31.8,,41.3,,36,,29.3,,5.59 µM,,2.47,,6.25,,53.5,,15.6 µM,,53
COc1cc(OCCCN2CCCC2)ccc1Nc1ncc(Cl)c(Nc2ccccc2P(C)(C)=O)n1,2.49,10.6,2.3,6.41,5.43,19.8,2.43,12.9,0.0173,,2.09,15.8,8.71,54.3,0.175,1.12,2.52,25.5 µM,4.11,34.3
CCCCCCCC(=O)Nc1nc2[nH]c(CN3CCN(Cc4cccc(I)c4)CC3)c(CN3CCN(Cc4cccc(I)c4)CC3)c2c(=O)[nH]1,0.829,1.65,0.916,1.7,0.923,1.8,0.901,1.66,0.238,1.06 µM,1.25,3.22,0.993,2.18,0.8,1.62,0.916,1.75 µM,0.858,1.62
Cn1cnc(SC2=CC(=O)C=C3S[C@H]4C[C@@]23c2c(c(O)c3c5c2=NCCC=5C=N3)N4)c1CC(N)C(=O)O (some centres not stated),12.4,26.1,18,36.6,18.1,32,7.31,19.6,20.9,98.9 µM,3.76,44.1,20.2,38.3,18.1,32.7,7.26,19.1 µM,19.3,33.5
C[C@]12CC[C@@H]3c4ccc(O)cc4CC[C@H]3[C@@H]1CC(Cc1ccccc1)(Cc1ccccc1)C2=O,21.2,58.3,21.2,37.4,16,31.8,15.1,29.3,4.87,36.1 µM,14.3,36.4,11,34.6,21.3,36.5,14.8,29.2 µM,18,34.5
NC(=O)c1ccc(I)c([N+](=O)[O-])c1,> 100,> 100,> 100,> 100,45.3,> 100,56.1,> 100,32.8,> 100 µM,> 63.7,> 100,35.8,> 100,> 78.7,> 100,> 75.9,> 100 µM,> 100,> 100
COc1ccc(NC(=O)c2ccc(C(F)(F)F)nc2Nc2ccc(Cl)cc2C)cc1Cl,5.4,21.3,4.67,18.6,4.23,14.9,3.35,14.3,1.72,6.46 µM,3.84,17.4,2.58,28.9,5.02,17.5,3.65,14 µM,5.45,19.7
CN1C(c2ccccc2)CC(=NO)CC1c1ccccc1 (configuration not stated),,> 100,,> 100,,> 100,,> 100,24.9,> 100 µM and 80.1 µM,29.2,> 100,46.4,,,> 100,30.6,58.9 µM and 97.1 µM,,> 100
